Source: ChEMBL document CHEMBL1201862, “PubChem BioAssay data set” (2004)
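Step 1: Grow cells in 96-well plates. Step 2: Expose to compound for 48 hours at 5 concentrations. Step 3: Interpolate endpoints linearly; if unreached, use highest concentration. GI50: concentration for 50% inhibition of growth.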 Calls of active or inactive are those of the source. Cut-off read from the data, not from the text of the source: active = GI50 up to about 1.1 µM and inactive = higher.

Tests used:
Assay in all cases: NCI anticancer screen, dose series, 48 h
Hs-578T = tested on: Hs-578T
786-0 = tested on: 786-0
COLO 205 = tested on: COLO 205
SK-MEL-5 = tested on: SK-MEL-5
NCI-H522 = tested on: NCI-H522
UACC-257 = tested on: UACC-257
MCF7 = tested on: MCF7
OVCAR-5 = tested on: OVCAR-5
UACC-62 = tested on: UACC-62
SF-295 = tested on: SF-295
SNB-75 = tested on: SNB-75
HCC 2998 = tested on: HCC 2998
HCT-15 = tested on: HCT-15
HOP-62 = tested on: HOP-62
SF-268 = tested on: SF-268
EKVX = tested on: EKVX
NCI-H23 = tested on: NCI-H23
RXF 393 = tested on: RXF 393
CCRF-CEM = tested on: CCRF-CEM
HCT-116 = tested on: HCT-116
UO-31 = tested on: UO-31
SK-OV-3 = tested on: SK-OV-3
ACHN = tested on: ACHN
DU-145 = tested on: DU-145
MDA-MB-435 = tested on: MDA-MB-435
NCI-H460 = tested on: NCI-H460
BT-549 = tested on: BT-549
A549 = tested on: A549
NCI/ADR-RES = tested on: NCI/ADR-RES
TK-10 = tested on: TK-10
HT-29 = tested on: HT-29
OVCAR-8 = tested on: OVCAR-8
LOX IMVI = tested on: LOX IMVI
HOP-92 = tested on: HOP-92
SK-MEL-2 = tested on: SK-MEL-2
MOLT-4 = tested on: MOLT-4
MDA-N = tested on: MDA-N
Malme-3M = tested on: Malme-3M
RPMI-8226 = tested on: RPMI-8226
CAKI-1 = tested on: CAKI-1
K562 = tested on: K562
SK-MEL-28 = tested on: SK-MEL-28
SR = tested on: SR
T47D = tested on: T47D
SF-539 = tested on: SF-539
M14 = tested on: M14
MDA-MB-231 = tested on: MDA-MB-231
SNB-19 = tested on: SNB-19
PC-3 = tested on: PC-3
KM12 = tested on: KM12
OVCAR-3 = tested on: OVCAR-3
OVCAR-4 = tested on: OVCAR-4
U-251 = tested on: U-251
SW-620 = tested on: SW-620
IGROV-1 = tested on: IGROV-1
SN12C = tested on: SN12C
NCI-H226 = tested on: NCI-H226
HL-60 = tested on: HL-60

Cc1ccc(Nc2nc3ccccc3nc2NS(=O)(=O)c2ccc(N)cc2)cc1
GI50 (Hs-578T): 65.5 µM (inactive) | GI50 (786-0): 82.4 µM (inactive) | GI50 (COLO 205): 45.8 µM (inactive) | GI50 (SK-MEL-5): 39.2 µM (inactive) | GI50 (NCI-H522): 25.2 µM (inactive) | GI50 (UACC-257): > 100 µM (inactive) | GI50 (MCF7): 45.2 µM (inactive) | GI50 (OVCAR-5): > 100 µM (inactive) | GI50 (UACC-62): 36.1 µM (inactive) | GI50 (SF-295): 46.7 µM (inactive) | GI50 (SNB-75): 84.9 µM (inactive) | GI50 (HCC 2998): 3.64 µM (inactive) | GI50 (HCT-15): 49.8 µM | GI50 (HOP-62): > 100 µM (inactive) | GI50 (SF-268): 89.7 µM (inactive) | GI50 (EKVX): > 100 µM (inactive) | GI50 (NCI-H23): 3.2 µM (inactive) | GI50 (RXF 393): 30.8 µM (inactive) | GI50 (CCRF-CEM): 18.4 µM (inactive) | GI50 (HCT-116): 37.3 µM (inactive) | GI50 (UO-31): 21.5 µM (inactive) | GI50 (SK-OV-3): > 100 µM (inactive) | GI50 (ACHN): 38.5 µM (inactive) | GI50 (DU-145): 97.9 µM (inactive) | GI50 (MDA-MB-435): 30.7 µM (inactive) | GI50 (NCI-H460): 4.89 µM (inactive) | GI50 (BT-549): 5.35 µM (inactive) | GI50 (A549): 34.5 µM (inactive) | GI50 (NCI/ADR-RES): 61.8 µM (inactive) | GI50 (TK-10): 45.9 µM (inactive) | GI50 (HT-29): 68.4 µM (inactive) | GI50 (OVCAR-8): 81.8 µM (inactive) | GI50 (LOX IMVI): 70.3 µM (inactive) | GI50 (HOP-92): 95.9 µM (inactive) | GI50 (SK-MEL-2): 29.4 µM (inactive) | GI50 (MOLT-4): 15.6 µM (inactive) | GI50 (MDA-N): 41.4 µM (inactive) | GI50 (Malme-3M): 91.2 µM (inactive) | GI50 (RPMI-8226): 23.6 µM (inactive) | GI50 (CAKI-1): 59.2 µM (inactive) | GI50 (K562): 31.5 µM (inactive) | GI50 (SK-MEL-28): 33.4 µM (inactive) | GI50 (SR): 20.7 µM (inactive) | GI50 (T47D): 44 µM (inactive) | GI50 (SF-539): 39.4 µM (inactive) | GI50 (M14): 57.7 µM (inactive) | GI50 (MDA-MB-231): > 100 µM (inactive) | GI50 (SNB-19): 31.1 µM (inactive) | GI50 (PC-3): 41.8 µM (inactive) | GI50 (KM12): 23.5 µM (inactive) | GI50 (OVCAR-3): 65 µM (inactive) | GI50 (OVCAR-4): 19.3 µM (inactive) | GI50 (U-251): 30.2 µM (inactive) | GI50 (SW-620): 20.4 µM (inactive) | GI50 (IGROV-1): 56.8 µM (inactive) | GI50 (SN12C): 48.3 µM (inactive) | GI50 (NCI-H226): 78.7 µM (inactive) | GI50 (HL-60): 21.9 µM (inactive)

C[C@@H](c1ccccc1)N1CN(C(=O)OCc2ccccc2)C(C)(C)CC1=O
GI50 (Hs-578T): > 100 µM (inactive) | GI50 (786-0): > 100 µM (inactive) | GI50 (COLO 205): > 100 µM (inactive) | GI50 (SK-MEL-5): 41.7 µM (inactive) | GI50 (NCI-H522): > 100 µM (inactive) | GI50 (UACC-257): 78.2 µM (inactive) | GI50 (MCF7): > 100 µM (inactive) | GI50 (OVCAR-5): > 100 µM (inactive) | GI50 (UACC-62): > 100 µM (inactive) | GI50 (SF-295): > 100 µM (inactive) | GI50 (SNB-75): > 100 µM (inactive) | GI50 (HCC 2998): > 100 µM (inactive) | GI50 (HCT-15): > 100 µM | GI50 (HOP-62): > 100 µM (inactive) | GI50 (SF-268): > 100 µM (inactive) | GI50 (EKVX): > 100 µM (inactive) | GI50 (NCI-H23): > 100 µM (inactive) | GI50 (RXF 393): 15.5 µM (inactive) | GI50 (CCRF-CEM): > 100 µM (inactive) | GI50 (HCT-116): > 100 µM (inactive) | GI50 (SK-OV-3): > 100 µM (inactive) | GI50 (ACHN): > 100 µM (inactive) | GI50 (DU-145): > 100 µM (inactive) | GI50 (MDA-MB-435): > 100 µM (inactive) | GI50 (NCI-H460): > 100 µM (inactive) | GI50 (BT-549): > 100 µM (inactive) | GI50 (A549): > 100 µM (inactive) | GI50 (NCI/ADR-RES): > 100 µM (inactive) | GI50 (TK-10): > 100 µM (inactive) | GI50 (HT-29): > 100 µM (inactive) | GI50 (OVCAR-8): > 100 µM (inactive) | GI50 (LOX IMVI): > 100 µM (inactive) | GI50 (HOP-92): > 100 µM (inactive) | GI50 (SK-MEL-2): > 100 µM (inactive) | GI50 (MOLT-4): > 100 µM (inactive) | GI50 (MDA-N): > 100 µM (inactive) | GI50 (Malme-3M): > 100 µM (inactive) | GI50 (RPMI-8226): > 100 µM (inactive) | GI50 (CAKI-1): > 100 µM (inactive) | GI50 (K562): > 100 µM (inactive) | GI50 (SK-MEL-28): 56.9 µM (inactive) | GI50 (SR): 86.3 µM (inactive) | GI50 (T47D): 50.6 µM (inactive) | GI50 (SF-539): > 100 µM (inactive) | GI50 (M14): > 100 µM (inactive) | GI50 (MDA-MB-231): > 100 µM (inactive) | GI50 (SNB-19): > 100 µM (inactive) | GI50 (PC-3): > 100 µM (inactive) | GI50 (KM12): > 100 µM (inactive) | GI50 (OVCAR-3): > 100 µM (inactive) | GI50 (OVCAR-4): > 100 µM (inactive) | GI50 (U-251): > 100 µM (inactive) | GI50 (SW-620): > 100 µM (inactive) | GI50 (IGROV-1): > 100 µM (inactive) | GI50 (SN12C): > 100 µM (inactive) | GI50 (NCI-H226): > 100 µM (inactive) | GI50 (HL-60): 66.8 µM (inactive)
